pEC50: −log10 of the molar value.
Experiments:
[1] = Rat liver microsomal stability in the absence of cofactors (NADPH generating system); type: in vitro ADME; conditions: rat liver microsomes without NADPH cofactors, 4 h, 50 μM, 37 °C
Description: A final solution of microsomes (1 mg/mL protein) in 250 μL of PBS at pH 7.4 containing 50 μM of bixin was prepared in the absence of an NADPH-regenerating metabolic cofactor system. The bixin was incubated with rat microsomes under these conditions for 0, 30, 60, 120, and 240 min with shaking in a water bath at 37 °C. The subsequent steps for protein precipitation, bixin extraction, and HPLC analysis were identical to those described for the rat plasma stability assay.

[2] = PAMPA-GIT permeability assay; type: in vitro ADME
Source text: The parallel artificial membrane permeability assay (PAMPA) utilizes a 96-well plate system in a “sandwich” format, where one plate is positioned above another (PAMPA). The upper plate, known as the donor compartment, contains the compounds (test or control) dissolved in a buffered solution. […] The lipid composition of the PVDF filter varies depending on the type of permeability test. For gastrointestinal tract (GIT) permeability assessments, L-α-soy phosphatidylcholine in dodecane is used. Optical density values are measured at specified wavelengths for each compound and compared against controls. For GIT permeability, the absorbed fraction (Fa%) and permeability (Pe) are determined. […] Compounds for these assays were diluted from a 10 mM stock solution. These assays were conducted using a 1 mg/mL stock solution per compound.

Nrf2/ARE axis = experiment: Luciferase ARE reporter assay; type: cell-based; conditions: RAW 264.7 transfected with ARE luciferase reporter, 0–200 μM; read-out: EC50 in activating the Nrf2/ARE axis
Description: RAW 264.7 cells (3.5 × 10^5 cells/well) were seeded into 24-well plates in FBS-free DMEM. Next day, cells were transfected with the ARE-responsive luciferase reporter kit (#60514, BPS Bioscience, San Diego, CA, USA) in Opti-MEM containing Lipofectamine 2000 and incubated for 24 h. After stimulation with different concentrations of potassium bixinate (0–200 μM), the luciferase-containing medium was collected and incubated with luciferin substrate (Dual Luciferase Assay System) (#60683-1, BPS Bioscience, San Diego, CA, USA) according to the manufacturer’s instructions. Luminescence emitted by luciferin cleavage was measured using the Varioskan LUX plate reader (ThermoFisher Scientific, Waltham, MA, USA).

[3] = Solubility tests of the potassium salt; type: physicochemical

Row | initial concentration maintained in microsomes [1] [%] | Papp ([2]; L-α-soy phosphatidylcholine in dodecane, read-out: Experimental Pe) [×10⁻⁶ cm/s] | Experimental Fa ([2]; absorbed fraction) [%] | Molecule | pEC50 (Nrf2/ARE axis) | aqueous solubility relative to bixin [3]
1 | ~100 | 0.36 | 12.79 | COC(=O)/C=C/C(C)=C\C=C\C(C)=C\C=C\C=C(C)\C=C\C=C(C)\C=C\C(=O)O [HBx, (2E,4E,6E,8E,10E,12E,14E,16Z,18E)-20-methoxy-4,8,13,17-tetramethyl-20-oxoicosa-2,4,6,8,10,12,14,16,18-nonaenoic acid] |  | 
2 |  |  |  | potassium bixinate [KBx] | 4.34 | significant increase in the aqueous solubility
